biological target: T1, Human BCL-XL protein (N-terminal HiBiT tagged BCL-XL in HT1080 cells) (Homo sapiens, UniProt Q07817); test: HiBiT based degradation assay; assay type: cell-based; settings: HT1080 cells expressing N-terminal HiBiT tagged BCL-XL, 24 h, normalized with DMSO control
T1 construct: expressed in transfected cells; host or cells: HT-1080 (ATCC CCL-121), stably transduced with lentivirus pLV-UBC-N-HiBiT-BCL-XL-PGK-puro and selected with puromycin
Source text: HiBiT Based Degradation Assay
Human BCL-XL protein coding open reading frame fused with N-terminal HiBiT coding sequence was synthesized from Integrated DNA Technologies (IDT). Next, N-HiBiT-BCL-XL sequence was cloned into pLV-UBC-PGK-Puro, a lentivirus plasmid purchased from Vectorbuilder, to generate pLV-UBC-N-HiBiT-BCL-XL-PGK-puro. Lentiviral particles were generated from Lenti-X™ 293T cells (Clontech) by co-transfection of pLV-UBC-N-HiBiT-BCL-XL-PGK-puro plasmids and lentiviral packaging plasmid mix (Cellecta). HT-1080 [HT1080](ATCC CCL-121) cells were infected with the lentivirus, and HT1080 cells stably integrated with the lentiviral vectors were established by incubation with 1 μg/mL puromycin (Thermofisher).
HT1080 cells expressing N-terminal HiBiT tagged BCL-XL were dispensed into a 384-well plate pre-spotted with compounds at varying concentrations. Three thousand cells were seeded into each well in 40 μL of RPMI 1640 media. […] After incubation, luminescence was read on a PHERAstar FSX Plate Reader (BMG). BCL-XL degradation at each indicated concentration was normalized with the DMSO control. The BCL-XL degradation curves were plotted using a four-parameter logistic model. For compounds displaying hook effects, the curve fitting was performed using the bottom point of the hook curves (i.e., the point of Ymin) as the bottom plateau to calculate EC50.

T1 sequence (Q07817 whole entry): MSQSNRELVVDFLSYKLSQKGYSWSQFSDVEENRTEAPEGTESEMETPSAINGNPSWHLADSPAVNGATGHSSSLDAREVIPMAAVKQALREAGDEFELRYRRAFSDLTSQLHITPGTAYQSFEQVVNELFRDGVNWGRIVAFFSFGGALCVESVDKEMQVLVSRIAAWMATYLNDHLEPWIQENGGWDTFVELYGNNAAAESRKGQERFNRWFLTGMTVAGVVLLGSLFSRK

SMILES | Ymin (24 h)
Cc1ncsc1-c1ccc([C@H](C)NC(=O)[C@@H]2C[C@@H](O)CN2C(=O)[C@@H](NC(=O)C[C@H]2CC[C@H](Oc3cccc(-c4ccc(N5CCc6cccc(C(=O)Nc7nc8ccccc8s7)c6C5)nc4C(=O)O)c3C)CC2)C(C)(C)C)cc1 [Compound 116a, 6-(8-(benzo[d]thiazol-2-ylcarbamoyl)-3,4-dihydroisoquinolin-2 (1H)-yl)-3-(3-(((1S,4r)-4-(2-(((S)-1-((2S,4R)-4-hydroxy-2-(((S)-1-(4-(4-methylthiazol-5-yl)phenyl)ethyl)carbamoyl)pyrrolidin-1-yl)-3,3-dimethyl-1-oxobutan-2-yl)amino)-2-oxoethyl)cyclohexyl)oxy)-2-methylphenyl)picolinic acid] | A (Ymin < 50%)
Cc1ncsc1-c1ccc([C@H](C)NC(=O)[C@@H]2C[C@@H](O)CN2C(=O)[C@@H](NC(=O)C[C@H]2CC[C@@H](Oc3cccc(-c4ccc(N5CCc6cccc(C(=O)Nc7nc8ccccc8s7)c6C5)nc4C(=O)O)c3C)CC2)C(C)(C)C)cc1 [Compound 116b, 6-(8-(benzo[d]thiazol-2-ylcarbamoyl)-3,4-dihydroisoquinolin-2 (1H)-yl)-3-(3-(((1R,4s)-4-(2-(((S)-1-((2S,4R)-4-hydroxy-2-(((S)-1-(4-(4-methylthiazol-5-yl)phenyl)ethyl)carbamoyl)pyrrolidin-1-yl)-3,3-dimethyl-1-oxobutan-2-yl)amino)-2-oxoethyl)cyclohexyl)oxy)-2-methylphenyl)picolinic acid] | B (50% ≤ Ymin < 70%)
Cc1ncsc1-c1ccc([C@H](C)NC(=O)[C@@H]2C[C@@H](O)CN2C(=O)[C@@H](NC(=O)C(F)(F)C[C@H]2CC[C@H](Oc3cccc(-c4ccc(N5CCc6cccc(C(=O)Nc7nc8ccccc8s7)c6C5)nc4C(=O)O)c3C)CC2)C(C)(C)C)cc1 [Compound 117a, 6-(8-(benzo[d]thiazol-2-ylcarbamoyl)-3,4-dihydroisoquinolin-2 (1H)-yl)-3-(3-(((1S,4r)-4-(2,2-difluoro-3-(((S)-1-((2S,4R)-4-hydroxy-2-(((S)-1-(4-(4-methylthiazol-5-yl)phenyl)ethyl)carbamoyl)pyrrolidin-1-yl)-3,3-dimethyl-1-oxobutan-2-yl)amino)-3-oxopropyl)cyclohexyl)oxy)-2-methylphenyl)picolinic acid] | B (50% ≤ Ymin < 70%)
CC(=O)O[C@@H]1C[C@@H](C(=O)N[C@@H](C)c2ccc(-c3scnc3C)cc2)N(C(=O)[C@@H](NC(=O)CCCc2ccc(Oc3cccc(-c4ccc(N5CCc6cccc(C(=O)Nc7nc8ccccc8s7)c6C5)nc4C(=O)O)c3C)cc2)C(C)(C)C)C1 [Compound 118a, 3-[3-[4-[4-[[(1S)-1-[(2S,4R)-4-acetoxy-2-[[(1S)-1-[4-(4-methylthiazol-5-yl)phenyl]ethyl]carbamoyl]pyrrolidine-1-carbonyl]-2,2-dimethyl-propyl]amino]-4-oxo-butyl]phenoxy]-2-methyl-phenyl]-6-[8-(1,3-benzothiazol-2-ylcarbamoyl)-3,4-dihydro-1H-isoquinolin-2-yl]pyridine-2-carboxylic acid] | B (50% ≤ Ymin < 70%)
CC(=O)O[C@@H]1C[C@@H](C(=O)N[C@@H](C)c2ccc(-c3scnc3C)cc2)N(C(=O)[C@@H](NC(=O)C[C@H]2CC[C@H](Oc3cccc(-c4ccc(N5CCc6cccc(C(=O)Nc7nc8ccccc8s7)c6C5)nc4C(=O)O)c3C)CC2)C(C)(C)C)C1 [Compound 119a, 3-(3-(((1S,4r)-4-(2-(((S)-1-((2S,4R)-4-acetoxy-2-(((S)-1-(4-(4-methylthiazol-5-yl)phenyl)ethyl)carbamoyl)pyrrolidin-1-yl)-3,3-dimethyl-1-oxobutan-2-yl)amino)-2-oxoethyl)cyclohexyl)oxy)-2-methylphenyl)-6-(8-(benzo[d]thiazol-2-ylcarbamoyl)-3,4-dihydroisoquinolin-2 (1H)-yl)picolinic acid] | B (50% ≤ Ymin < 70%)
Cc1ncsc1-c1ccc([C@@H](NC(=O)[C@@H]2C[C@@H](O)CN2C(=O)[C@@H](NC(=O)CCCc2ccc(Oc3cccc(-c4ccc(N5CCc6cccc(C(=O)Nc7nc8ccccc8s7)c6C5)nc4C(=O)O)c3C)cc2)C(C)(C)C)C(F)(F)F)cc1 [Compound 120a, 6-[8-(1,3-benzothiazol-2-ylcarbamoyl)-3,4-dihydro-1H-isoquinolin-2-yl]-3-[3-[4-[4-[[(1S)-1-[(2S,4R)-4-hydroxy-2-[[(1R)-2,2,2-trifluoro-1-[4-(4-methylthiazol-5-yl)phenyl]ethyl]carbamoyl]pyrrolidine-1-carbonyl]-2,2-dimethyl-propyl]amino]-4-oxo-butyl]phenoxy]-2-methyl-phenyl]pyridine-2-carboxylic acid] | A (Ymin < 50%)
Cc1ncsc1-c1ccc([C@H](C)NC(=O)[C@@H]2C[C@@H](O)CN2C(=O)[C@@H](NC(=O)CCCc2ccc(Oc3cccc(-c4ccc(N5CCc6cccc(C(=O)Nc7nc8ccccc8s7)c6C5)nc4C(=O)O)c3C)cc2)C(C)(C)C)nc1 [Compound 121a, 6-[8-(1,3-benzothiazol-2-ylcarbamoyl)-3,4-dihydro-1H-isoquinolin-2-yl]-3-[3-[4-[4-[[(1S)-1-[(2S,4R)-4-hydroxy-2-[[(1S)-1-[5-(4-methylthiazol-5-yl)-2-pyridyl]ethyl]carbamoyl]pyrrolidine-1-carbonyl]-2,2-dimethyl-propyl]amino]-4-oxo-butyl]phenoxy]-2-methyl-phenyl]pyridine-2-carboxylic acid] | A (Ymin < 50%)
Cc1ncsc1-c1ccc([C@H](C)NC(=O)[C@@H]2C[C@@H](O)CN2C(=O)[C@@H](NC(=O)CN2CCC(Oc3cccc(-c4ccc(N5CCc6cccc(C(=O)Nc7nc8ccccc8s7)c6C5)nc4C(=O)O)c3C)CC2)C(C)(C)C)cc1 [Compound 122a, 6-[8-(1,3-benzothiazol-2-ylcarbamoyl)-3,4-dihydro-1H-isoquinolin-2-yl]-3-[3-[[1-[2-[[(1S)-1-[(2S,4R)-4-hydroxy-2-[[(1S)-1-[4-(4-methylthiazol-5-yl)phenyl]ethyl]carbamoyl]pyrrolidine-1-carbonyl]-2,2-dimethyl-propyl]amino]-2-oxo-ethyl]-4-piperidyl]oxy]-2-methyl-phenyl]pyridine-2-carboxylic acid] | B (50% ≤ Ymin < 70%)
Cc1ncsc1-c1ccc([C@H](C)NC(=O)[C@@H]2C[C@@H](O)CN2C(=O)[C@@H](NC(=O)CN2CCC(CCOc3cccc(-c4ccc(N5CCc6cccc(C(=O)Nc7nc8ccccc8s7)c6C5)nc4C(=O)O)c3C)CC2)C(C)(C)C)cc1 [Compound 123a, 6-(8-(benzo[d]thiazol-2-ylcarbamoyl)-3,4-dihydroisoquinolin-2 (1H)-yl)-3-(3-(2-(1-(2-(((S)-1-((2S,4R)-4-hydroxy-2-(((S)-1-(4-(4-methylthiazol-5-yl)phenyl)ethyl)carbamoyl)pyrrolidin-1-yl)-3,3-dimethyl-1-oxobutan-2-yl)amino)-2-oxoethyl)piperidin-4-yl)ethoxy)-2-methylphenyl)picolinic acid] | A (Ymin < 50%)
Cc1ncsc1-c1ccc([C@H](C)NC(=O)[C@@H]2C[C@@H](O)CN2C(=O)[C@@H](NC(=O)CN2CCC(CCCOc3cccc(-c4ccc(N5CCc6cccc(C(=O)Nc7nc8ccccc8s7)c6C5)nc4C(=O)O)c3C)CC2)C(C)(C)C)cc1 [Compound 124a, 6-[8-(1,3-benzothiazol-2-ylcarbamoyl)-3,4-dihydro-1H-isoquinolin-2-yl]-3-[3-[3-[1-[2-[[(1S)-1-[(2S,4R)-4-hydroxy-2-[[(1S)-1-[4-(4-methylthiazol-5-yl)phenyl]ethyl]carbamoyl]pyrrolidine-1-carbonyl]-2,2-dimethyl-propyl]amino]-2-oxo-ethyl]-4-piperidyl]propoxy]-2-methyl-phenyl]pyridine-2-carboxylic acid] | A (Ymin < 50%)
Cc1ncsc1-c1ccc([C@@H](NC(=O)[C@@H]2C[C@@H](O)CN2C(=O)[C@@H](NC(=O)C[C@H]2CC[C@H](Oc3cccc(-c4ccc(N5CCc6cccc(C(=O)Nc7nc8ccccc8s7)c6C5)nc4C(=O)O)c3C)CC2)C(C)(C)C)C(F)(F)F)cc1 [Compound 125a, 6-(8-(benzo[d]thiazol-2-ylcarbamoyl)-3,4-dihydroisoquinolin-2 (1H)-yl)-3-(3-(((1S,4r)-4-(2-(((S)-1-((2S,4R)-4-hydroxy-2-(((R)-2,2,2-trifluoro-1-(4-(4-methylthiazol-5-yl)phenyl)ethyl)carbamoyl)pyrrolidin-1-yl)-3,3-dimethyl-1-oxobutan-2-yl)amino)-2-oxoethyl)cyclohexyl)oxy)-2-methylphenyl)picolinic acid] | A (Ymin < 50%)
Cc1ncsc1-c1ccc([C@H](C)NC(=O)[C@@H]2C[C@@H](O)CN2C(=O)[C@@H](n2cc(CCCCCOc3cccc(-c4ccc(N5CCc6cccc(C(=O)Nc7nc8ccccc8s7)c6C5)nc4C(=O)O)c3C)nn2)C(C)(C)C)cc1 [Compound 126a, 6-[8-(1,3-benzothiazol-2-ylcarbamoyl)-3,4-dihydro-1H-isoquinolin-2-yl]-3-[3-[5-[1-[(1S)-1-[(2S,4R)-4-hydroxy-2-[[(1S)-1-[4-(4-methylthiazol-5-yl)phenyl]ethyl]carbamoyl]pyrrolidine-1-carbonyl]-2,2-dimethyl-propyl]triazol-4-yl]pentoxy]-2-methyl-phenyl]pyridine-2-carboxylic acid] | A (Ymin < 50%)
